# Key:
# AMPK [1] = assay: AMPK phosphorylation in Neuro2a cells (phospho-specific western blot); type: cell-based; details: for effect on resveratrol-mediated activation of AMPK (AMPK and ACC phosphorylation): resveratrol 10 μM, 2 h, sirtinol 10 μM, splitomycin 10 μM, nicotinamide 10 mM, STO 609 2.5 μM
# Experimental: FIG. 10A-D illustrates resveratrol activation of AMP kinase in Neuro2a cells. Neuro2a cells were switched to serum-starvation medium (medium containing 0.2% FCS) and treated with DMSO (vehicle control), resveratrol (10 μM) or 5-aminoimidazole-4-carboxamide-1-β-D-ribofuranoside (AICAR) (1 mM). […] Very low levels of phosphorylated AMPK and ACC were detected in DMSO treated control cells at all time points tested. (C) Densitometric analysis of changes in phosphorylated AMPK and (D) phosphorylated ACC under different conditions is shown.
# Cell culture and Reagents. Neuro2 cells obtained from ATCC were grown in MEM with 1.5 g/L sodium bicarbonate, 0.1 mM nonessential amino acids, 0.1 mM sodium pyruvate, 2 mM L-glutamine with 10% FCS. For differentiation, cells were switched to serum-starvation medium (containing 0.2% FCS). For neurite outgrowth measurements, experiments were done in quadruplicate and 100 neurites per well were randomly measured using the Metamorph software. Dorsal root ganglia sensory and cortical neurons were established from E13.5 mouse embryos, maintained in neurobasal medium supplemented with B27 (and NGF for DRG neurons) and infected with lentiviruses as described (Araki et al., 2004, Science 305:1010-1013; Hawley et al., 2005, Cell Metab 2:21-23). Resveratrol was a gift from Sirtris Pharmaceuticals (Cambridge Mass.) and AICAR was obtained from Toronto Research (North York, Canada). Splitomycin and Compound C were purchased from Biomol (Plymouth Meeting, Pa.) and Calbiochem (San Diego, Calif.). Sirtinol and nicotinamide were purchased from Sigma (Saint Louis, Mo.)
# Plasmids and viruses. The dominant negative (dnAMPK) and constitutively active (caAMPK) plasmids were gifts from Russell Jones (University of Pennsylvania, Philadelphia Pa.), and pCXN-Cre was a gift of Inder Verma (Salk Institute, San Diego, Calif.). All constructs were subcloned into the lentiviral shuttle vector FCIV and verified by nucleotide sequence analysis. Viruses were prepared as previously described (Araki et al., 2004, Science 305:1010-1013). Protein and mRNA analysis. Immunoprecipitations and western blot analysis were performed by standard methods using antibodies directed against total AMPK, phosphorylated AMPK, total ACC or phosphorylated ACC that were obtained from Cell Signaling Technology (Beverley, Mass.). The phospho-AMPK antibody detects endogenous AMPK α1 and α2 when phosphorylated at threonine 172. The LKB1 antibody was purchased from Upstate (Lake Placid, N.Y.). Quantitative RT-PCR analysis was performed using Sybr-Green methodology on a model 7700 instrument (Applied Biosystems) as previously described (Araki et al., 2004, Science 305:1010-1013). Primer sequences were those used in previous studies (Motoshima, et al., 2006, J Physiol 574:63-71).
# To explore the role of polyphenols, in particular, of resveratrol, we tested whether resveratrol altered the activity of AMPK in neuronal cells. Neuro2a neuroblastoma cells were treated with resveratrol (10 μM) and AMPK activation was examined using phospho-AMPK specific antibodies. […] To confirm that AMPK activation by resveratrol results in typical AMPK-mediated downstream responses, we monitored phosphorylation of ACC (acetyl Co-A carboxylase), a primary target of activated AMPK. […] To examine a potential mechanism of resveratrol-mediated AMPK activation, we measured cellular ATP levels as a decreased ATP:AMP ratio increases the phosphorylation of AMPK. ATP levels were monitored using a luciferase-based assay in neuro2A cells treated with resveratrol or Oligomycin, an inhibitor of mitochondrial oxidative phosphorylation and therefore ATP production. While the ATP concentration dropped from 5.874 μM in DMSO-treated cells (control) to 0.976 μM in Oligomycin treated cells within 2 hr, the ATP concentration in resveratrol-treated Neuro2a cells was not altered from control either at 2 hr (6.33 μM) or 24 hr (6.42 μM).
# AMPK [2] = assay: AMPK phosphorylation in brain after intraperitoneal injection; type: in vivo, mice; details: single intraperitoneal injection 20 mg/kg; within 2 h
# Experimental: FIG. 15A-E illustrates that resveratrol treatment causes AMPK phosphorylation in the brain. Two-month-old male mice were injected intraperitoneally with resveratrol (20 mg/kg body weight) or DMSO (vehicle) (n=3, for each treatment). Two hr after treatment, the animals were sacrificed and brain lysates were prepared. […] Total AMPK and ACC levels are shown as loading controls in B and D. (E) Densitometry was used to quantify the increased level of AMPK and ACC phosphorylation in the brain of resveratrol treated animals (* p<0.005).
# To extend our in vitro results, we tested whether treating mice with resveratrol activates AMPK in the brain. We injected intraperitoneally 2-month-old male mice with either resveratrol (20 mg/kg body weight) or DMSO (vehicle) (n=3 for each group).
# [3] = system: Tfam, PGC-1α and MFN2 mRNA; assay: mitochondrial biogenesis markers, quantitative RT-PCR in Neuro2a cells; type: cell-based; details: 10 μM, 3 d
# Experimental: Three days later cells were shifted to serum-starvation medium containing DMSO (control) or resveratrol (10 μM). In addition, uninfected Neuro2a cells in serum-starvation medium were treated with resveratrol alone, the AMPK inhibitor Compound C (CC, Biomol International L.P. (Plymouth Meeting, Pa.)) (10 μM) alone or with resveratrol and CC together. […] Values were normalized to the 18S transcript. Data shown is representative of two independent experiments.
# Protein and mRNA analysis. […] Quantitative RT-PCR analysis was performed using Sybr-Green methodology on a model 7700 instrument (Applied Biosystems) as previously described (Araki et al., 2004, Science 305:1010-1013).
# We treated Neuro2a cells for 3d with either DMSO (control) or resveratrol (10 μM) in the presence or absence of the AMPK inhibitor Compound C (10 μM). We assessed mitochondrial biogenesis by monitoring mRNA levels of mitofusin 2 (MFN2), a mitochondrial protein and marker of mitochondrial mass and two key regulators of mitochondrial biogenesis, peroxisome proliferator activated receptor γ coactivator 1α (PGC1α) and mitochondrial transcription factor A (Tfam) (Kelly, et al., 2004, Genes Dev 18:357-368).
# neuro2A cells = assay: survival of Neuro2A cells in nutrient-deprived conditions; type: cell-based; details: regardless of the FCS concentration (10% or 0.2%)
# Experimental: When Neuro2A cells are grown in culture in presence of 10% FCS, cells proliferate and ultimately die if cells are not passaged. If grown in the presence of 0.2% FCS, neuro2A cells differentiate and project neurites but ultimately die within one week.
smiles,measurement,setting,value
"NC(=O)c1cccnc1 [Nam, nicotinamide]",effect on resveratrol-mediated activation of AMPK (AMPK and ACC phosphorylation),AMPK [1],None of the SIRT1 inhibitors attenuated
O=C(O)c1ccc2c3c1cccc3c(=O)n1c3ccccc3nc21 [STO 609],effect on resveratrol-mediated activation of AMPK (AMPK and ACC phosphorylation),AMPK [1],had no effect
CC(NC(=O)c1ccccc1/N=C/c1c(O)ccc2ccccc12)c1ccccc1 (stereo not shown) [Sirtinol],effect on resveratrol-mediated activation of AMPK (AMPK and ACC phosphorylation),AMPK [1],None of the SIRT1 inhibitors attenuated
Oc1ccc(C=Cc2cc(O)cc(O)c2)cc1 [resveratrol],AMPK phosphorylation,"AMPK [1]; resveratrol 10 μM or AICAR 1 mM, 2 h up to 72 h",robust increase in AMPK Thr172 phosphorylation
same,increased AMPK phosphorylation in the brain,AMPK [2],2.5 fold
same,increase in MFN2 mRNA,[3],2 fold
same,increase in PGC-1α mRNA,[3],2 fold
same,increase in Tfam mRNA,[3],~18 fold
same,cell survival,neuro2A cells,resistant to death for a prolonged period of time
O=C1CCc2c(ccc3ccccc23)O1 [splitomycin],effect on resveratrol-mediated activation of AMPK (AMPK and ACC phosphorylation),AMPK [1],None of the SIRT1 inhibitors attenuated
